# Values quoted from earlier work as cited in patent publication US20150164917A1 (VALPHARMA INTERNATIONAL S.P.A., priority 2012, published 2015).
# Test system: uterine fibrosis
# Conditions: 5 mg daily oral for 6 months, compared with higher doses
smiles,measurement,value
CC#C[C@]1(O)CC[C@H]2[C@@H]3CCC4=CC(=O)CCC4=C3[C@@H](c3ccc(N(C)C)cc3)C[C@@]21C [Mifepristone],effects in the treatment of uterine fibrosis,effects comparable with those of higher doses of Mifepristone
